What was measured:
Aβ42 = molecular target: T1, Aβ42 (Homo sapiens, UniProt P05067); experiment: TEM of Aβ42 fibrils formed with the tested molecules; conditions: 5-fold excess of compound
T1 construct: purchased rPeptide (USA)
Experimental: These fibrils also generated the amyloid specific gold-green birefringence upon staining with Congo red (Fig. 3, bottom panel and Supplementary Fig. 6)[74].
(§1) Samples (10 µL) were placed for 2 min on 400-mesh copper grids covered with carbon-stabilized Formvar film (Electron Microscopy Sciences (EMS), Hatfield, PA). Excess fluid was removed, and grids were negatively stained with 2% uranyl acetate solution (10 µL) for 2 min. After excess fluid removal, the samples were visualized using a JEM-1400 TEM (JEOL), operated at 80 kV.

hIAPP [1] = molecular target: T2, hIAPP (Homo sapiens, UniProt P10997); experiment: TEM of hIAPP fibrils formed with the tested molecules; conditions: 5-fold molar excess of compound
T2 construct: hIAPP is a 37-amino acid neuroendocrine peptide hormone; purchased Peptide 2.0 (USA)
T2 sequence (P10997 34-70 limits assumed): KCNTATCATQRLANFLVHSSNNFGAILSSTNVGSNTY
Experimental: (§2) When hIAPP was incubated with 5-fold molar excess of the hybrid molecules, no typical fibrillar assemblies were observed, rather some amorphous aggregates of different sizes were detected (Fig. 4, upper panel).
as §1

hIAPP [2] = molecular target: T2, hIAPP; experiment: Congo red birefringence of hIAPP fibrils formed with the tested molecules; conditions: 5-fold molar excess of compound
Experimental: as §2

[3] = molecular target: T3, pre-formed fibrils of Aβ42 (Homo sapiens, UniProt P05067); experiment: ThT-binding assay, disaggregation of pre-formed Aβ42 fibrils; type: biochemical; conditions: for % amyloid of Aβ42: disaggregation of pre-formed Aβ42 (10 µM) fibrils
T3 construct: purchased rPeptide (USA)
Experimental: (§3) For efficient treatment of proteinopathies it may be advantageous to disassemble amyloid aggregates/fibrils which are usually already present at the time of diagnosis[75]–[77]. […] Then, various doses of the hybrid molecules were added to the pre-formed fibrils and the mixtures were incubated for additional 10 h. The process of disaggregation was monitored by ThT-binding assay, CD spectroscopy, TEM and Congo red staining (Fig. 5).
(§4) The experiment was performed according to the previous report. […] Kinetics fluorescence data were collected at 37 °C in triplicate using Infinite M200 microplate reader (Tecan, Switzerland), with measurements acquired at 15 min intervals. Excitation and emission wavelengths were set at 440 nm and 485 nm, respectively.

[4] = molecular target: T4, pre-formed fibrils of hIAPP (Homo sapiens, UniProt P10997); experiment: ThT-binding assay, disaggregation of pre-formed hIAPP fibrils; type: biochemical; conditions: for % amyloid of hIAPP in absence or presence of inhibitors: hIAPP 10 µM; for Normalized ThT fluorescence kinetics: hIAPP (10 µM) : molecule 1:5
T4 construct: hIAPP is a 37-amino acid neuroendocrine peptide hormone; purchased Peptide 2.0 (USA)
T4 sequence (P10997 34-70 limits assumed): T2 sequence (P10997 34-70 limits assumed)
Experimental: as §3, §4

[5] = molecular target: T4, pre-formed fibrils of hIAPP; experiment: Congo red birefringence of pre-formed hIAPP fibrils with the tested molecules; conditions: 5-fold molar excess of compound
Experimental: For efficient treatment of proteinopathies it may be advantageous to disassemble amyloid aggregates/fibrils which are usually already present at the time of diagnosis[75]–[77]. Therefore, the ability of the hybrid molecules to disrupt pre-formed fibrils of Aβ42 and hIAPP was examined. […] According to the ThT kinetic results, this time was sufficient to complete fibril formation (Fig. 2a, d). Then, various doses of the hybrid molecules were added to the pre-formed fibrils and the mixtures were incubated for additional 10 h. The process of disaggregation was monitored by ThT-binding assay, CD spectroscopy, TEM and Congo red staining (Fig. 5).

[6] = XTT assay, cytotoxicity of the hybrid molecules towards SH-SY5Y; type: cell-based; conditions: human, SH-SY5Y cells
Experimental: To this end, we first tested whether the hybrid molecules carried any cytotoxicity themselves. […] No considerable toxicity (≥95% viability) was caused by the hybrid molecules towards either cell line, even at the highest concentration of 250 µM (Fig. 8).
The SH-SY5Y and HEK-293 cell lines (2 × 10^5 cells/mL) were cultured in 96-well tissue microplates (100 µL/well) and allowed to adhere overnight at 37 °C. The conjugate molecules were dissolved in DMEM:nutrient mixture F12 (Ham’s) (1:1) (Biological Industries, Israel) at different concentrations. The negative control was prepared as medium without hybrid molecules and treated in the same manner. 100 µL of medium with or without hybrid molecules were added to each well in triplicate. Following incubation for 24 h at 37 °C, cell viability was evaluated using the 2,3-bis(2-methoxy-4-nitro-5-sulfophenyl)-2H-tetrazolium-5-carboxanilide (XTT) cell proliferation assay kit (Biological Industries, Israel) according to the manufacturer’s instructions. Briefly, 100 µL of activation reagent was added to 5 mL of XTT reagent, followed by the addition of 50 µL of activated-XTT solution to each well. After 2 h incubation at 37 °C, color intensity was measured using an ELISA microplate reader at 450 nm and 630 nm. Results are presented as mean and mean standard error. Each experiment was repeated minimum three times.

[7] = compound added to pre-formed fibrils

T3 sequence (P05067 672-713 limits assumed): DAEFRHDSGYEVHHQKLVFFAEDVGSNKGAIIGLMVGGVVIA
T1 sequence (P05067 672-713 limits assumed): as above

Compound: NC(Cc1c[nH]c2ccccc12)C(=O)NC(Cc1c[nH]c2ccccc12)C(=O)O (stereo not shown) [WW]
- Aβ42 fibril morphology (TEM), in words (Aβ42): did not display any effect
- hIAPP fibril morphology (TEM), in words (hIAPP [1]): clearly visible in a more densely packed network
- Congo red birefringence of hIAPP, in words (hIAPP [2]): clear gold-green birefringence
- increase of ThT fluorescence intensity of pre-formed Aβ42 fibrils [3, 7]: ~ 20%
- % amyloid of Aβ42 ([3]; molar ratio Aβ42:tested molecule (1:1)): 105.449%
- % amyloid of Aβ42 ([3]; molar ratio Aβ42:tested molecule (1:5)): 118.857%
- % amyloid of Aβ42 ([3]; molar ratio Aβ42:tested molecule (5:1)): 102.097%
- increase of ThT signal of pre-formed hIAPP fibrils [4, 7]: 20%
- % amyloid of hIAPP in absence or presence of inhibitors ([4]; molar ratio hIAPP:tested molecule 1:1): 112.662%
- % amyloid of hIAPP in absence or presence of inhibitors ([4]; molar ratio hIAPP:tested molecule 1:5): 117.610%
- % amyloid of hIAPP in absence or presence of inhibitors ([4]; molar ratio hIAPP:tested molecule 5:1): 104.704%
- Normalized ThT fluorescence kinetics ([4]; time 10.25 h): 100.289
- Normalized ThT fluorescence kinetics ([4]; time 10.5 h): 101.480
- Normalized ThT fluorescence kinetics ([4]; time 10.75 h): 103.392
- Normalized ThT fluorescence kinetics ([4]; time 11 h): 104.551
- Normalized ThT fluorescence kinetics ([4]; time 11.25 h): 105.696
- Normalized ThT fluorescence kinetics ([4]; time 11.5 h): 107.934
- Normalized ThT fluorescence kinetics ([4]; time 11.75 h): 110.096
- Normalized ThT fluorescence kinetics ([4]; time 12 h): 110.792
- Normalized ThT fluorescence kinetics ([4]; time 12.25 h): 111.709
- Normalized ThT fluorescence kinetics ([4]; time 12.5 h): 113.122
- Normalized ThT fluorescence kinetics ([4]; time 12.75 h): 114.844
- Normalized ThT fluorescence kinetics ([4]; time 13 h): 115.638
- Normalized ThT fluorescence kinetics ([4]; time 13.25 h): 116.172
- Normalized ThT fluorescence kinetics ([4]; time 13.5 h): 117.523
- Normalized ThT fluorescence kinetics ([4]; time 13.75 h): 117.888
- Normalized ThT fluorescence kinetics ([4]; time 14 h): 118.165
- Normalized ThT fluorescence kinetics ([4]; time 14.25 h): 118.126
- Normalized ThT fluorescence kinetics ([4]; time 14.5 h): 117.561
- Normalized ThT fluorescence kinetics ([4]; time 14.75 h): 117.932
- Normalized ThT fluorescence kinetics ([4]; time 15 h): 118.466
- Normalized ThT fluorescence kinetics ([4]; time 15.25 h): 118.713
- Normalized ThT fluorescence kinetics ([4]; time 15.5 h): 118.486
- Normalized ThT fluorescence kinetics ([4]; time 15.75 h): 118.695
- Normalized ThT fluorescence kinetics ([4]; time 16 h): 118.857
- Normalized ThT fluorescence kinetics ([4]; time 16.25 h): 118.835
- Normalized ThT fluorescence kinetics ([4]; time 16.5 h): 118.502
- Normalized ThT fluorescence kinetics ([4]; time 16.75 h): 118.398
- Normalized ThT fluorescence kinetics ([4]; time 17 h): 118.694
- Normalized ThT fluorescence kinetics ([4]; time 17.25 h): 118.398
- Normalized ThT fluorescence kinetics ([4]; time 17.5 h): 118.456
- Normalized ThT fluorescence kinetics ([4]; time 17.75 h): 118.427
- Normalized ThT fluorescence kinetics ([4]; time 18 h): 117.817
- Normalized ThT fluorescence kinetics ([4]; time 18.25 h): 117.835
- Normalized ThT fluorescence kinetics ([4]; time 18.5 h): 117.859
- Normalized ThT fluorescence kinetics ([4]; time 18.75 h): 117.995
- Normalized ThT fluorescence kinetics ([4]; time 19 h): 117.576
- Normalized ThT fluorescence kinetics ([4]; time 19.25 h): 117.741
- Normalized ThT fluorescence kinetics ([4]; time 19.5 h): 118.044
- Normalized ThT fluorescence kinetics ([4]; time 19.75 h): 117.625
- Normalized ThT fluorescence kinetics ([4]; time 20 h): 117.610
- Congo red birefringence of pre-formed hIAPP fibrils, in words [5]: unchanged
- viability at 24 h, 0.2 µM ([6]; 0.2µM): 98.8%
- viability at 24 h, 1 µM ([6]; 1 µM): 100%
- viability at 24 h, 10 µM ([6]; 10 µM): 98.4%
- viability at 24 h, 50 µM ([6]; 50 µM): 90.9%
- viability at 24 h, 250 µM [6]: 88.4%
- viability at 24 h, 250 µM ([6]; SH-SY5Y, 24 h): ~88%

— article PMC7468108 (Communications Biology, 2020)
